Several values for one entry are separate records, joined by “and”; a condition that tells them apart may be missing. Equal values may be shown once. Inconclusive results are not listed.
System: B6C3F1 mice, colon carcinoma 38 s.c., T/C
Test: NCI In Vivo Anticancer Drug Screen. Data for tumor model Colon Carcinoma 38 (subcutaneous) in B6C3F1 mice
Settings: endpoint: median tumor weight (est.), schedule: Q07DX002 (ip), higher = larger tumour
Procedure: The antitumor activity of compounds was measured in mice bearing transplantable tumors. Survival or tumor size were measured and the results are expressed as the measurement made in the treated group (T) divided by the measurement made in the vehicle treated control group (C). The tumor model used in this assay is Colon Carcinoma 38 (subcutaneous) in B6C3F1 mice

[1] = dose: 100.0 mg/kg/injection, vehicle: Klucel (hydroxypropylcellulose) (HPC)
[2] = dose: 50.0 mg/kg/injection, vehicle: saline
[3] = dose: 100.0 mg/kg/injection, vehicle: saline
[4] = dose: 400.0 mg/kg/injection, vehicle: saline
[5] = dose: 100.0 mg/kg/injection, vehicle: saline with Tween-80
[6] = dose: 200.0 mg/kg/injection, vehicle: saline with Tween-80
[7] = dose: 400.0 mg/kg/injection, vehicle: saline with Tween-80
[8] = dose: 800.0 mg/kg/injection, vehicle: saline with Tween-80

How did the T/C [1] turn out when O=C(O)Cc1cccc2c(=O)c(-c3ccccc3)c(-c3ccccc3)oc12 was run?
The T/C was 11 % of control.

What does the source list for C(=N/NC1=NCCN1)/c1c2ccccc2c(/C=N\NC2=NCCN2)c2ccccc12?
T/C (dose: 6.25 mg/kg/injection, vehicle: saline): 100 % of control; T/C (dose: 12.5 mg/kg/injection, vehicle: saline): 55 % of control; T/C (dose: 25.0 mg/kg/injection, vehicle: saline): 112 % of control; T/C [2]: 81 % of control; T/C [3]: 36 % of control

NC(Cn1ccc(=O)c(O)c1)C(=O)O (stereo not drawn) was tested. Which T/C [3] did it give?
Its T/C is 97 % of control.

What about the T/C [4] of the same compound?
Its T/C is 54 % of control.

What about the T/C (dose: 800.0 mg/kg/injection, vehicle: saline) of the same compound?
Its T/C is 156 % of control.

How did the T/C (dose: 100.0 mg/kg/injection, vehicle: water) turn out when BrCCC1(CCBr)CCCCC1 was run?
The T/C was 112 % of control.

And the T/C (dose: 200.0 mg/kg/injection, vehicle: water)?
Its T/C is 177 % of control.

And the T/C (dose: 400.0 mg/kg/injection, vehicle: water)?
The T/C was 95 % of control.

What about the T/C (dose: 800.0 mg/kg/injection, vehicle: water) of the same compound?
Its T/C is 117 % of control.

And the T/C (dose: 1600.0 mg/kg/injection, vehicle: water)?
Its T/C is 90 % of control.

With O=c1[nH]cnc2nc(/N=N/SCCO)[nH]c12 as the compound, how does the T/C (dose: 50.0 mg/kg/injection, vehicle: Klucel (hydroxypropylcellulose) (HPC)) read?
Its T/C is 115 % of control.

And the T/C [1]?
Its T/C is 114 % of control.

What about the T/C (dose: 200.0 mg/kg/injection, vehicle: Klucel (hydroxypropylcellulose) (HPC)) of the same compound?
The T/C was 101 % of control.

Which T/C (dose: 50.0 mg/kg/injection, vehicle: saline with Tween-80) does the source give for COc1ccc2c(ccc3oc([N+](=O)[O-])cc32)c1 here?
Its T/C is 101 % of control.

What about the T/C [5] of the same compound?
Its T/C is 116 % of control.

And the T/C [6]?
The T/C was 90 % of control.

What about the T/C [7] of the same compound?
Its T/C is 92 % of control.

How did the T/C [5] turn out when S=C(NCNC(=S)c1ccncc1)c1ccncc1 was run?
The T/C was 70 % of control.

What about the T/C [6] of the same compound?
The T/C was 104 % of control.

What about the T/C [7] of the same compound?
The T/C was 70 % of control.

And the T/C [8]?
The T/C was 66 % of control.

For C[n+]1c(-c2cccc(OCCOCCOc3cccc(-c4c5cc(N)ccc5c5ccc(N)cc5[n+]4C)c3)c2)c2cc(N)ccc2c2ccc(N)cc21, which T/C (dose: 4.0 mg/kg/injection, vehicle: water) is on record?
The T/C was 71 % of control.

What about the T/C (dose: 8.0 mg/kg/injection, vehicle: water) of the same compound?
The T/C was 54 % of control.

And the T/C (dose: 16.0 mg/kg/injection, vehicle: water)?
The T/C was 85 % of control and 66 % of control.

What about the T/C (dose: 64.0 mg/kg/injection, vehicle: water) of the same compound?
The T/C was 33 % of control and 52 % of control.

What does the source list for O=C(O)C1CC(O)CN1 (stereo not drawn)?
T/C [2]: 93 % of control; T/C [3]: 87 % of control; T/C [4]: 79 % of control

Which results are given for O=c1[nH]cnc2[nH]ncc12?
T/C (dose: 25.0 mg/kg/injection, vehicle: suspension in saline): 83 % of control; T/C (dose: 50.0 mg/kg/injection, vehicle: suspension in saline): 69 % of control; T/C (dose: 100.0 mg/kg/injection, vehicle: suspension in saline): 88 % of control

For O=C1NC(=O)/C(=C/C=C/c2ccccc2)S1, which T/C [6] is on record?
The T/C was 67 % of control.

And the T/C [7]?
Its T/C is 86 % of control.

And the T/C [8]?
Its T/C is 63 % of control.

— PubChem BioAssay AID214 (DTP/NCI, 2004)
